# Entries after “also recorded” stand apart in the source; their conditions may differ.
# B1: Q1EQE0: putative protein of Streptomyces kanamyceticus, SEQ ID NO: 17, imine reductase homologue (protein, listed as Streptomyces kanamyceticus)
# chain: MPDNPSTKGRMMRNQQAEHTPVTVIGLGLMGQALAGAFLGAGHPTTVWNRTAAKAEPLVARGAKSAGSVAEAVAASPLVVVCVSDYDAVHALLDPLDGTALQGRTLVNLTSGTSAQARERAAWADGRGADYLDGAILAGPAAIGTADAVVLLSGPRSAFDPHASALGGLGAGTTYLGADHGLASLYDAAGLVMMWSILNGFLQGAALLGTAGVDATTFAPFITQGIGTVADWLPGYARQIDDGAYPADDAAIDTHLATMEHLIHESEFLGVNAELPRFIKALADRAVADGHGGSGYPALIEQFRTHSGK
# B2: imine reductase purified from GF3587: NADPH-dependent imine reductase purified from Streptomyces sp. GF3587, amino acid sequence SEQ ID NO: 6 (protein)
# chain: MGDNRTPVTVIGLGLMGQALAAAFLEAGHTTTVWNRSAGKAEQLVSQGAVQAATPADAVAASELVVVCLSTYDNMHDVIGSLGESLRGKVIVNLTSGSSDQGRETAAWAEKQGVEYLDGAIMITPPGIGTETAVLFYAGTQSVFEKYEPALKLLGGGTTYLGTDHGMPALYDVSLLGLMWGTLNSFLHGVAVVETAGVGAQQFLPWAHMWLEAIKMFTADYAAQIDAGDGKFPANDATLETHLAALKHLVHESEALGIDAELPKYSEALMERVISQGHAKNSYAAVLKAFRKPSE
# modifications: Streptomyces sp. GF3587
# How the values were obtained:
# [1] = system: imine reductase purified from GF3587; assay: Substrate specificity of imine reductase purified from GF3587 (decrease of NADPH absorbance at 340 nm); assay type: biochemical, Streptomyces sp. GF3587; conditions: for level of activity of reducing the compound, activity of reducing 2-methyl-1-pyrroline taken as 100: relative to 2-MPN = 100; for Relative Activity: 2-MPN = 100
# Procedure: To assess the substrate specificity of the imine reductase purified from GF3587, the activities of the enzyme towards the compounds listed in Table 4 were compared.
# One ml of reaction mixtures having the composition described below were incubated at […]. The reaction mixtures were assayed to determine the decrease in absorbance (340 nm) of NADPH due to the generation of (R)-2-methylpyrrolidine. An imine reductase solution (2.04 U/ml) was added to reaction solutions containing each substrate compound shown in Table 4 to initiate the reaction. The absorbance of each reaction solution was determined at 340 nm after two minutes of incubation.
# The relative activity shown in the table is defined as relative activity when the enzymatic activity on […] (2-MPN) is taken as 100.
# [2] = system: imine reductase responsible for the reduction of 2-methyl-1-pyrroline (crude enzyme solution); assay: Coenzyme dependency of 2-methyl-1-pyrroline reduction by crude enzyme solution; assay type: biochemical, Streptomyces sp. GF3587; conditions: 10 mM coenzyme, 10 mM 2-methyl-1-pyrroline, pH 7.0, 30° C.
# Procedure: (§1) The cells of Streptomyces sp. GF3587 were cultured according to Example 1, and then crushed with glass beads. A crude enzyme solution was prepared by removing intact microbial cells and cell debris by centrifugation. 100 μl of the crude enzyme solution was added to 100 mM phosphate buffer (pH 7.0) containing 10 mM 2-methyl-1-pyrroline and 10 mM NADH or NADPH. During incubation of the mixture at 30° C., absorbance was measured at 340 nm to monitor the decrease of NAD(P)H. The enzymatic activity was determined by this assay.
# [3] = Imine-reducing activity of microbial cell extracts of recombinant E. coli JM109; assay type: biochemical; conditions: protein expressed in E. coli
# Procedure: as §1
# The E. coli JM109 strain that had been transformed with an imine reductase expression plasmid pSUSRIR1 was cultured in an ampicillin-containing liquid LB medium at 30° C. overnight. After adding 0.1 mM IPTG, the cells were further cultured for four hours.
# The microbial cells were harvested by centrifugation, and then suspended in 100 mM potassium phosphate buffer (pH 7.0) containing 1 mM DTT. The microbial cells were crushed in Sealed-Type Ultrasonic Cell Disruptor UCD-200™ (Cosmo Bio). After centrifugation, the supernatant was collected as microbial cell extract. […] After adding 0.1 mM IPTG the cells were further cultured for four hours. Using the same method, the microbial cells were also crushed to prepare microbial cell extract.
# Each microbial cell extract was assayed for its imine-reducing activity towards 2-methyl-1-pyrroline. […]
# [4] = Optimal temperature of imine reductase; assay type: biochemical, Streptomyces sp. GF3587; conditions: pH 7.0, 10 to 70° C. tested
# Procedure: The imine reductase purified from GF3587 was tested for its optimal temperature. 1 ml of reaction solution having the composition described below were incubated at 10 to 70° C. to measure the decrease of absorbance (340 nm) of NADPH due to the generation of (R)-2-methylpyrrolidine. After the reaction solutions were pre-incubated at each temperature for five minutes, an imine reductase solution (12.3 U/ml) was added thereto to initiate the reaction. After two minutes, the absorbance of the reaction solutions was measured at 340 nm. The amount of imine reductase that catalyzes the decrease (oxidation) of 1 μmol of NADPH per minute when incubated at 30° C. in the reaction solution having the composition described below is defined as 1 U. The result is shown in FIG. 7.
# [5] = Optimal pH of imine reductase; assay type: biochemical, Streptomyces sp. GF3587; conditions: 30° C.
# Procedure: Furthermore, the imine reductase purified from GF3587 was tested for its optimal pH. The reaction was started by adding an imine reductase (6.82 U/ml) solution to reaction mixtures having the same composition as shown in (1), except that various types of buffer agents were added. The mixtures were incubated at 30° C. for two minutes. The buffers used in this experiment and their pH are listed below.
# 100 mM citrate buffer: pH 3 to 6
# 100 mM sodium acetate buffer: pH 4 to 5.5
# 100 mM potassium phosphate buffer: pH 6 to 8
# 100 mM Tris-HCl buffer: pH 7.5 to 9
# 100 mM glycine-sodium hydroxide buffer: pH 9 to 11
# The reaction solutions were assayed to determine the decreases in absorbance (340 nm) of NADPH due to the generation of (R)-2-methylpyrrolidine. […] Furthermore, 80% or more of the maximal activity was retained at pH 6.0 to 7.5.
molecule,measurement,setting,value
C/C(=N\c1ccccc1)c1ccccc1 [N-((E/Z)-N-(1-phenylethylidene)aniline],"level of activity of reducing the compound, activity of reducing 2-methyl-1-pyrroline taken as 100",[1],29%
same,Relative Activity,[1]; substrate 25 mM,29
Cc1ncccn1 [2-Methylpyrimidine],Relative Activity,[1]; substrate 10 mM,0
Nc1nc2c(c(=O)[nH]1)N=C(CNc1ccc(C(=O)N[C@@H](CCC(=O)O)C(=O)O)cc1)CN2 [Dihydrofolic acid],"level of activity of reducing the compound, activity of reducing 2-methyl-1-pyrroline taken as 100",[1],7.6%
same,Relative Activity,[1]; substrate 0.05 mM,7.6
CC(=NO)c1ccccc1 [Acetophenone oxime],Relative Activity,[1]; substrate 1 mM,0
"NC(=O)C1=CN([C@@H]2O[C@H](COP(=O)(O)OP(=O)(O)OC[C@H]3O[C@@H](n4cnc5c(N)ncnc54)[C@H](OP(=O)(O)O)[C@@H]3O)[C@@H](O)[C@H]2O)C=CC1 [NADPH, reduced nicotinamide adenine dinucleotide phosphate]","activity with the coenzyme, activity with NADPH taken as 100%",[2],100%
Cc1ncc[nH]1 [2-Methylimidazole],Relative Activity,[1]; substrate 10 mM,0
Cc1cccs1 [2-Methylthiophene],Relative Activity,[1]; substrate 5 mM,0
C(=NCc1ccccc1)c1ccccc1 [N-Benzylidenebenzylamine],Relative Activity,[1]; substrate 10 mM,30
NC(=O)C1=CN([C@@H]2O[C@H](COP(=O)(O)OP(=O)(O)OC[C@H]3O[C@@H](n4cnc5c(N)ncnc54)[C@H](O)[C@@H]3O)[C@@H](O)[C@H]2O)C=CC1 [NADH],"activity with the coenzyme, activity with NADPH taken as 100%",[2],7%
"CC1=NCCC1 [2-Methyl-1-pyrroline (2-MPN), 2-Methyl-1-pyrroline]","level of activity of reducing the compound, activity of reducing 2-methyl-1-pyrroline taken as 100",[1],100%
same,enzymatic activity corresponding to relative activity 100,[1]; substrate 10 mM,2.04 U/mL
same,Relative Activity,[1]; substrate 10 mM,100
Cc1cnccn1 [2-Methylpyrazine],Relative Activity,[1]; substrate 10 mM,0
Cc1ccco1 [2-Methylfuran],Relative Activity,[1]; substrate 10 mM,0
Cc1nccs1 [2-Methylthiazole],Relative Activity,[1]; substrate 10 mM,0
"C1=NCCCN1 [1,4,5,6-Tetrahydropyrimidine]",Relative Activity,[1]; substrate 10 mM,0
B1,imine-reducing activity in words,[3],exhibited the imine-reducing activity; also recorded: had imine-reducing activity
B2,optimal temperature,[4],50 °C
same,optimal pH,[5],6.5

# Source: patent US20110287494A1, “PROCESS FOR PRODUCTION OF OPTICALLY ACTIVE AMINE DERIVATIVE” (Daicel Chemical Industries Ltd, priority 2008, published 2011)
